The target of assay [1] is Hormonally up-regulated neu tumor-associated kinase (Homo sapiens) (UniProt P57058). Put plainly: Inhibition of HUNK (unknown origin) at 1 uM by Ambit Kinomescan binding assay relative to control; values are per cent of control.
Assay [2] addresses T1, Dual specificity mitogen-activated protein kinase kinase 3 (Homo sapiens) (UniProt P46734).
T1 sequence (whole entry): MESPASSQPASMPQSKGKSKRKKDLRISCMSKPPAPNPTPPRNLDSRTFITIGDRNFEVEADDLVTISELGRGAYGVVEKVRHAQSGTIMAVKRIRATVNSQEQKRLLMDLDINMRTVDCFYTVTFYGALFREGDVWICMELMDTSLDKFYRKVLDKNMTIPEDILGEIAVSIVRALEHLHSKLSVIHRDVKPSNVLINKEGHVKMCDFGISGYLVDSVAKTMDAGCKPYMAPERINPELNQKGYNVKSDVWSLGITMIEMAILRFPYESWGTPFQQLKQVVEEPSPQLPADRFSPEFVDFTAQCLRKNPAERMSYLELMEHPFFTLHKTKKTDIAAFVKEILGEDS
Kind of assay: Inhibition of MEK3 (unknown origin) at 1 uM by Ambit Kinomescan binding assay relative to control; values are per cent of control.

For assay [3], the target named is Dual specificity tyrosine-phosphorylation-regulated kinase 1B (Homo sapiens) (UniProt Q9Y463). Put plainly: Inhibition of DYRK1B (unknown origin) at 1 uM by Ambit Kinomescan binding assay relative to control; values are per cent of control.
In assay [4] the target is Cyclin-dependent kinase 14 (Homo sapiens) (UniProt O94921). Kind of assay: Inhibition of PFTAIRE1 Lys2 labeling site in human A-375 cells at 0.05 uM by KiNativ Profiling analysis relative to control.
Assay [5] has as its system Serine/threonine-protein kinase B-raf (Homo sapiens), P15056 [V600E]. Put plainly: Inhibition of BRAF V600E mutant (unknown origin) at 10 uM by Ambit Kinomescan binding assay relative to control.
Assay [6] concerns the target T2, Tyrosine-protein kinase ABL (Homo sapiens) (UniProt P00519+P42684). Put plainly: Inhibition of ABL1/2 K1 labeling site in human Huh-7 cells at 10 uM by KiNativ Profiling analysis relative to control. In kind it is cell-based.
The target of assay [7] is TRAF2 and NCK-interacting protein kinase (Homo sapiens) (UniProt Q9UKE5). Kind of assay: Inhibition of ZC2/TNIK K2 labeling site in human Huh-7 cells at 1 uM by KiNativ Profiling analysis relative to control. In kind it is cell-based.
Sequence of TRAF2 and NCK-interacting protein kinase (Homo sapiens) (Q9UKE5 whole entry, looked up): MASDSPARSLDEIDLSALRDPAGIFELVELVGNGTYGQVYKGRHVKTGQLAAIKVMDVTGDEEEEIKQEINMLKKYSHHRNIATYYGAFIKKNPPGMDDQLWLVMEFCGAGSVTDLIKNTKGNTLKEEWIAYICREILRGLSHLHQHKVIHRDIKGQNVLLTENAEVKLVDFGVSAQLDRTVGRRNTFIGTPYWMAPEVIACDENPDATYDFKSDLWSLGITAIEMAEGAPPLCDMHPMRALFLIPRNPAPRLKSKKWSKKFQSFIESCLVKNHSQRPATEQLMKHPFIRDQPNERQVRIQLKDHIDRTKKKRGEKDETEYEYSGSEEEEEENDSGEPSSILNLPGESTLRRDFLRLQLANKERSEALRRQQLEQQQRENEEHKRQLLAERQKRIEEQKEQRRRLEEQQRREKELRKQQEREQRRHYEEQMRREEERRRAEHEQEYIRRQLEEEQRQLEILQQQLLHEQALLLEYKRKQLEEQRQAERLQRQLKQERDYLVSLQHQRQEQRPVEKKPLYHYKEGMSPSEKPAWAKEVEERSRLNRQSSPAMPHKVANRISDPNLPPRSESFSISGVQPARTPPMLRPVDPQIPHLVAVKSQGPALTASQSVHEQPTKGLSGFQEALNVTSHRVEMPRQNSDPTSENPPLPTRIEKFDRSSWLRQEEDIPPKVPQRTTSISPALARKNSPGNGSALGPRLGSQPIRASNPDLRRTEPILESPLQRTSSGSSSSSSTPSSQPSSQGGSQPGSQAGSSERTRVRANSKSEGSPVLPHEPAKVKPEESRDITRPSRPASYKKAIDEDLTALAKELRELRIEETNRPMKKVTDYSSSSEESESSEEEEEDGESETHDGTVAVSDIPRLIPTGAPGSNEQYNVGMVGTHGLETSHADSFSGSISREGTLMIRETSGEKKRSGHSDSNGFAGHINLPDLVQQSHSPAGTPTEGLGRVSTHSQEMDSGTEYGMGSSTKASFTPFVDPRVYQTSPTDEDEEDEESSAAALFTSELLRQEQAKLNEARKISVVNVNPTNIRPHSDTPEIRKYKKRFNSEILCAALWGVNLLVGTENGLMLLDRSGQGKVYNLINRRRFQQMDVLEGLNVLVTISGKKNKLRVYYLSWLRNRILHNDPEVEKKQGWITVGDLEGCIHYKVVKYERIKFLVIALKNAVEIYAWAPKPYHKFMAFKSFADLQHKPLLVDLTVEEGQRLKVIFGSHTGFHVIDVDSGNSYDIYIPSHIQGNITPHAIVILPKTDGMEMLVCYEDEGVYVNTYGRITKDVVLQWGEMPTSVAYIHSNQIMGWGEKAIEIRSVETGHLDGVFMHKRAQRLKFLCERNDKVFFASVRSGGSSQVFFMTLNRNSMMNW
For assay [8], the target named is T3, Serine/threonine-protein kinase D3 (Homo sapiens) (UniProt O94806).
T3 sequence (whole entry): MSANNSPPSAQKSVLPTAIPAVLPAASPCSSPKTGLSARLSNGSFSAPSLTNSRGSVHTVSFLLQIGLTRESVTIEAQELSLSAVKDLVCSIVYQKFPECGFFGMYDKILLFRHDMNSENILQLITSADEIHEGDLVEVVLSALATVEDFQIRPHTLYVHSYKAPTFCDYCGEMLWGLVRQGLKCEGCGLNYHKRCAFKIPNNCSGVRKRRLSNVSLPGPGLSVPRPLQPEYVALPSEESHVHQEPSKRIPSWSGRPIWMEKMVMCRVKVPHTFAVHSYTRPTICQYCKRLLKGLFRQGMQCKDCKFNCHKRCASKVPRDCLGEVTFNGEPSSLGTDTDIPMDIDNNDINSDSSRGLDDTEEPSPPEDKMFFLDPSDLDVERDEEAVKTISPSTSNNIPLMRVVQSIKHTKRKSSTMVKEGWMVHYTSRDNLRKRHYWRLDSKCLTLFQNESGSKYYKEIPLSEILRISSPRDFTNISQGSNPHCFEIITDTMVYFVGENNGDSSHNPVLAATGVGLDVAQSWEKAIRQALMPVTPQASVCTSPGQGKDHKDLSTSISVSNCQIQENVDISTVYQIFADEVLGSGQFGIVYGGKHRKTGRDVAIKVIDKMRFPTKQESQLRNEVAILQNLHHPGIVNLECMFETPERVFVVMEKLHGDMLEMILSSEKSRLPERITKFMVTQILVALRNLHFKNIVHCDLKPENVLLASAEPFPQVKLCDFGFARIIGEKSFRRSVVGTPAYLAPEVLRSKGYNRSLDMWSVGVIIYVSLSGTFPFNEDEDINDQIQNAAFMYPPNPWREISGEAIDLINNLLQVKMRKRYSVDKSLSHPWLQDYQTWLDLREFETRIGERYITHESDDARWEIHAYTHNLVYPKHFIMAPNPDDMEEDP
Kind of assay: Inhibition of PRKD3 (unknown origin) at 10 uM by Ambit Kinomescan binding assay.

In assay [9] the target is T2, Tyrosine-protein kinase ABL (Homo sapiens). Kind of assay: Inhibition of ABL1/2 ACT labeling site in human Huh-7 cells at 10 uM by KiNativ Profiling analysis relative to control. In kind it is cell-based.
Assay [10] addresses Cyclin-dependent kinase 16 (Homo sapiens) (UniProt Q00536). Put plainly: Inhibition of PCTAIRE1 Lys1 labeling site in human A-375 cells at 0.05 uM by KiNativ Profiling analysis relative to control. In kind it is cell-based.
Assay [11] concerns the target Ribosomal protein S6 kinase alpha-4 (Homo sapiens) (UniProt O75676). Kind of assay: Inhibition of C-terminal RPS6KA4 kinase domain 2 (unknown origin) at 10 uM by Ambit Kinomescan binding assay; values are per cent of control.
Assay [12] concerns the target Epithelial discoidin domain-containing receptor 1 (Homo sapiens) (UniProt Q08345). Kind of assay: Inhibition of DDR1 (unknown origin) at 10 uM by Ambit Kinomescan binding assay; values are per cent of control.
Assay [13] concerns the target TRAF2 and NCK-interacting protein kinase (Homo sapiens) (UniProt Q9UKE5). Kind of assay: Inhibition of ZC2/TNIK K2 labeling site in human Huh-7 cells at 10 uM by KiNativ Profiling analysis relative to control. The format is cell-based.
Assay [14] addresses Calcium/calmodulin-dependent protein kinase type II subunit gamma (Homo sapiens) (UniProt Q13555). Put plainly: Inhibition of CAMK2g K1 labeling site harbouring KTSTQEYAAKIINTK in human Huh-7 cells at 10 uM by KiNativ Profiling analysis relative to control. The format is cell-based.
Assay [15] has as its target Calcium/calmodulin-dependent protein kinase type 1 (Homo sapiens) (UniProt Q14012). Put plainly: Inhibition of CaMK1a K1 labeling site in human Huh-7 cells at 1 uM by KiNativ Profiling analysis relative to control. The format is cell-based.
Assay [16] in a line: Inhibition of MARK2/3 K2 labeling site in human Huh-7 cells at 1 uM by KiNativ Profiling analysis relative to control. To be noted: condition cancer.
Assay [17] concerns the target TRAF2 and NCK-interacting protein kinase (Homo sapiens) (UniProt Q9UKE5). Put plainly: Inhibition of ZC2/TNIK Lys2 labeling site in human Huh-7 cells at 1 uM by KiNativ Profiling analysis relative to control. The format is cell-based.
The target in assay [18] is Proto-oncogene tyrosine-protein kinase Src (Homo sapiens, UniProt P12931). Put plainly: Inhibition of SRC ACT labeling site in human Huh-7 cell lysate at 1 uM by KiNativ Profiling analysis relative to control. In kind it is subcellular.
Assay [19] addresses Calcium/calmodulin-dependent protein kinase type II subunit gamma (Homo sapiens) (UniProt Q13555). Put plainly: Inhibition of CaMK2g Lys1 labeling site harbouring TSTQEYAAKIINTKK in human Huh-7 cells at 1 uM by KiNativ Profiling analysis relative to control. In kind it is cell-based.

The results in this text go back to ChEMBL document CHEMBL5696442, “Discovery of type II inhibitors of TGFβ-activated kinase 1 (TAK1) and mitogen-activated protein kinase kinase kinase kinase 2 (MAP4K2)” (J Med Chem, 2015).

Calls of active or inactive are those of the source. The rule behind the calls is not given here.

T2 sequence (P00519 whole entry, looked up): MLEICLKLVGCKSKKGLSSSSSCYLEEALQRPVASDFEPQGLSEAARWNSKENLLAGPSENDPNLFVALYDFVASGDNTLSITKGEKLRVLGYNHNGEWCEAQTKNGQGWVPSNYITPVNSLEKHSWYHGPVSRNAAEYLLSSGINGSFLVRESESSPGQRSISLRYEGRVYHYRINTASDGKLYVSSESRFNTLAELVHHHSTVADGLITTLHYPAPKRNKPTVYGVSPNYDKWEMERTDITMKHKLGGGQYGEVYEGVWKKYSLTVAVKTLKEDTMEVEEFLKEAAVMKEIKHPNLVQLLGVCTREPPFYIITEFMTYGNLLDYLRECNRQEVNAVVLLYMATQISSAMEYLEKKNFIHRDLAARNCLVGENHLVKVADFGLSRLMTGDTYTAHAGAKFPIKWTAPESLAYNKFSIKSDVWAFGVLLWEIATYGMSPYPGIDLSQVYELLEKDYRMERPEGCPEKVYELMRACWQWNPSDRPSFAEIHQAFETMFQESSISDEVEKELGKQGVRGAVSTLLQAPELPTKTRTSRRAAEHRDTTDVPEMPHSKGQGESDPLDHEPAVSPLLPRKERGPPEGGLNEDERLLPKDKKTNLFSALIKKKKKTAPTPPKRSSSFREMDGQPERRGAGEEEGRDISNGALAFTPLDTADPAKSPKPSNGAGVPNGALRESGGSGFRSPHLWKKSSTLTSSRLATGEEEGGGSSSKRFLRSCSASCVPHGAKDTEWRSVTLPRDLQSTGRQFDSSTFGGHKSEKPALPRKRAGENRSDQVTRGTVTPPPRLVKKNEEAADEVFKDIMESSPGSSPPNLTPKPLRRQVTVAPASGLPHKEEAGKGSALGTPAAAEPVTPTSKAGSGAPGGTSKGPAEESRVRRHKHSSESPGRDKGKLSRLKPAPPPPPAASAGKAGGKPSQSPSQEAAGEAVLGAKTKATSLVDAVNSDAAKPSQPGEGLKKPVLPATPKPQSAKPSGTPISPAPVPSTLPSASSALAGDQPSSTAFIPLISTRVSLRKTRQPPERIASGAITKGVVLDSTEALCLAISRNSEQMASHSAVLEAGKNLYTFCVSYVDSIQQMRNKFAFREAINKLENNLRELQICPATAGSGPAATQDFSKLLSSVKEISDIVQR
T2 sequence (P42684 whole entry, looked up): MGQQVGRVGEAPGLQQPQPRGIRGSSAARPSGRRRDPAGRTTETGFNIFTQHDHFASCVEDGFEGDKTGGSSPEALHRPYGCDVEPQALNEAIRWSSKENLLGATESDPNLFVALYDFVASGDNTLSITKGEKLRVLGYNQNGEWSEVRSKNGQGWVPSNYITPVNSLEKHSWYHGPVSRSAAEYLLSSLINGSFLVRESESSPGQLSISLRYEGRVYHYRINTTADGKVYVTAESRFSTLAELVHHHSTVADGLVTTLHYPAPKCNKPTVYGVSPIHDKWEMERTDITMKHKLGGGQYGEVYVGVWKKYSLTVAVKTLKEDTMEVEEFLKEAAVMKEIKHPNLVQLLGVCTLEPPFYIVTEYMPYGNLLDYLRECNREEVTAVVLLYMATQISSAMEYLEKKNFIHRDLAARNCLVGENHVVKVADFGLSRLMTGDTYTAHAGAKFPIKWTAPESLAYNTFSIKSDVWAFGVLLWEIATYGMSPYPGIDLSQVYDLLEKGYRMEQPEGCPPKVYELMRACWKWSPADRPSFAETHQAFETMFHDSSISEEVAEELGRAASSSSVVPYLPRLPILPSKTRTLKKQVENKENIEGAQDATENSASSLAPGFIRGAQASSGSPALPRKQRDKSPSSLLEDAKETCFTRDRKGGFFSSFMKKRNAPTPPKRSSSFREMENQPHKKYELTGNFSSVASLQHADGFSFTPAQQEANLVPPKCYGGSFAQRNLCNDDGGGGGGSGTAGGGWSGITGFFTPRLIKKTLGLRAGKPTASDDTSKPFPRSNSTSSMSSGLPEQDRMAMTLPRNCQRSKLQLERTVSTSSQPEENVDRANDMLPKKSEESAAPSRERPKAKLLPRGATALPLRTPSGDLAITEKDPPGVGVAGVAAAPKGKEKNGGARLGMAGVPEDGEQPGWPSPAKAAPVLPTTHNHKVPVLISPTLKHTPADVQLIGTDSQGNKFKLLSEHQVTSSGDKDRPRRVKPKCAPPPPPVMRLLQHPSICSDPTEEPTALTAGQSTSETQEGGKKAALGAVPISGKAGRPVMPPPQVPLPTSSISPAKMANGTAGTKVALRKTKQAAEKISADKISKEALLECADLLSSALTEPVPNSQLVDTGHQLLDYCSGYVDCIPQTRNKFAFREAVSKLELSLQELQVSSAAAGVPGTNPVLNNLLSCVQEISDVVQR
Sequence of Calcium/calmodulin-dependent protein kinase type II subunit gamma (Homo sapiens) (Q13555 whole entry): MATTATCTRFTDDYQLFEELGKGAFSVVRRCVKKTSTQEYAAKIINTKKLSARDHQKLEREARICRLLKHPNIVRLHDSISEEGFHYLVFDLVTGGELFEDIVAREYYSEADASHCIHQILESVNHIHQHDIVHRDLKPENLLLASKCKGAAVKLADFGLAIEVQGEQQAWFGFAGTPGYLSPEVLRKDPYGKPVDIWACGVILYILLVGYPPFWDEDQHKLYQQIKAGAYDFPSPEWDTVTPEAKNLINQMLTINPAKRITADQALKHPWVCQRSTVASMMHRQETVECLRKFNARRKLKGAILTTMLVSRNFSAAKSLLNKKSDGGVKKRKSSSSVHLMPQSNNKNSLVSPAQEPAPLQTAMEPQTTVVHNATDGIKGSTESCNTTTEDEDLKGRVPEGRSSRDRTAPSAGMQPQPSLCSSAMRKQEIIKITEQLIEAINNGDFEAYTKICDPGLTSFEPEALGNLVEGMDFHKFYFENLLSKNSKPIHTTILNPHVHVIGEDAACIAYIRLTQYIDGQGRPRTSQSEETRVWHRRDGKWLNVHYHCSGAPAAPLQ
Sequence of Serine/threonine-protein kinase B-raf (Homo sapiens), P15056 [V600E] (P15056 whole entry V600E): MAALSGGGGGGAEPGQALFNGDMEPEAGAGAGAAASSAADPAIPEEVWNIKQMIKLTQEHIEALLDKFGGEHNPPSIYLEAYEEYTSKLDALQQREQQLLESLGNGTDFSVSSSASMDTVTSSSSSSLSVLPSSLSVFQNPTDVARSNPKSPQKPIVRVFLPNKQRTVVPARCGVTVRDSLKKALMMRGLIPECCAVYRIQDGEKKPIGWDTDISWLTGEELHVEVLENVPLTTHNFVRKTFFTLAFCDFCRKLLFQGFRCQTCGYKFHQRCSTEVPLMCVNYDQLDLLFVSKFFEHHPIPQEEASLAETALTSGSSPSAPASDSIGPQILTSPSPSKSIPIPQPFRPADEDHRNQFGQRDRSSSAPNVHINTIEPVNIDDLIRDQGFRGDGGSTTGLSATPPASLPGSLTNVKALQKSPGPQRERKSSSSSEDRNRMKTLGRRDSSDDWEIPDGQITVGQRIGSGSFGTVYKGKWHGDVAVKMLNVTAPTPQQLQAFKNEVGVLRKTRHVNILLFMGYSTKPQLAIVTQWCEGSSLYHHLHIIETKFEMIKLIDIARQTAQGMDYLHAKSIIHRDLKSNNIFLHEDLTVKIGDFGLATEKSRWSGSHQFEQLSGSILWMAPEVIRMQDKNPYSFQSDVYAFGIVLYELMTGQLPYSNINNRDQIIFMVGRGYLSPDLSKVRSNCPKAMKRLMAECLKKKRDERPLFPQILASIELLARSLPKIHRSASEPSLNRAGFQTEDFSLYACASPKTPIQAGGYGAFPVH

In the case of `CCN1CCN(Cc2ccc(NC(=O)c3ccc(C)c(/C=C/c4cnc5[nH]ccc5c4OC)c3)cc2C(F)(F)F)CC1`, the residual activity stood at 57% in assay [1], 62% in [2] and 73% in assay [3].
Regarding `CCN1CCN(Cc2ccc(NC(=O)c3ccc(C)c(Oc4ccnc5[nH]ccc45)c3)cc2C(F)(F)F)CC1`, the inhibition in assay [4] was found to be 0.6%; in assay [5], 4%; in assay [6], 96%; in assay [7] it was 23%; in assay [9] it was 98.4%; in assay [10], 31.9%. Moreover, the inhibition came to 72.6% in [13], 6.1% in assay [14] and 19% in assay [15]. Also, the inhibition result in assay [8] was “inactive”. The percent of control amounted to 4.7% in assay [11] and 0.05% in assay [12]. Further, in assay [16], the inhibition at 1 µM is -5.3%.
On to `CNc1cc(Oc2cc(C(=O)Nc3cc(N4CCN(C)CC4)cc(C(F)(F)F)c3)ccc2C)ncn1`, for which the inhibition in assay [17] was determined as 9.7%; in assay [18], 22%; in assay [19], 31.8%.

As usually defined, the inhibition is the change of the read-out against control, counted positive when it falls.
